Results taken from the supplement of paper PMC8882468.

These compounds were tested on HCI-016 (organoid from a triple-negative breast cancer xenograft) (assay: CTG-3D luminescence at 96 h relative to day-0 seeding control (ratio to day 0); higher = more growth / less cytotoxicity; PDxO 3D drug screen, 96 h, CTG-3D normalised to day-0 seeding control.). Conditions: 0.005 µM; days in culture: 153.

Compound | CTG-3D luminescence at 96 h
COc1cc2c(Oc3ccc4[nH]c(C)cc4c3F)ncnc2cc1OCCCN1CCCC1 [cediranib] | 2.18
CC(C)n1nc(-c2ccc3oc(N)nc3c2)c2c(N)ncnc21 [sapanisertib] | 2.18
Cc1cc(Nc2ncnc3ccc(NC4=NC(C)(C)CO4)cc23)ccc1Oc1ccn2ncnc2c1 [tucatinib] | 2.31
C[C@H](NC(=O)CCC(F)(F)F)C(=O)N[C@@H]1C(=O)N(CCO)c2ncccc2-c2ccccc21 [crenigacestat] | 2.67
C[C@]12CC[C@@H]3c4ccc(O)cc4C[C@@H](CCCCCCCCC[S+]([O-])CCCC(F)(F)C(F)(F)F)[C@H]3[C@@H]1CC[C@@H]2O (some centres not stated) [fulvestrant] | 2.24
O=C(c1ccc(F)c(F)c1Nc1ccc(I)cc1F)N1CC(O)([C@@H]2CCCCN2)C1 [cobimetinib] | 2.26
O=C(/C=C/c1cccnc1)NCCCCC1CCN(C(=O)c2ccccc2)CC1 [FK866] | 0.569
CS(=O)(=O)c1ccc(C(=O)Nc2ccc(Cl)c(-c3ccccn3)c2)c(Cl)c1 [vismodegib] | 2.91
C=CCn1c(=O)c2cnc(Nc3ccc(N4CCN(C)CC4)cc3)nc2n1-c1cccc(C(C)(C)O)n1 [adavosertib] | 2.59

Same assay, conditions: 0.005 µM; days in culture: 172

Compound | CTG-3D luminescence at 96 h
COc1cc2c(Oc3ccc4[nH]c(C)cc4c3F)ncnc2cc1OCCCN1CCCC1 [cediranib] | 1.6
CC(C)n1nc(-c2ccc3oc(N)nc3c2)c2c(N)ncnc21 [sapanisertib] | 1.85
Cc1cc(Nc2ncnc3ccc(NC4=NC(C)(C)CO4)cc23)ccc1Oc1ccn2ncnc2c1 [tucatinib] | 1.67
C[C@H](NC(=O)CCC(F)(F)F)C(=O)N[C@@H]1C(=O)N(CCO)c2ncccc2-c2ccccc21 [crenigacestat] | 1.71
C[C@]12CC[C@@H]3c4ccc(O)cc4C[C@@H](CCCCCCCCC[S+]([O-])CCCC(F)(F)C(F)(F)F)[C@H]3[C@@H]1CC[C@@H]2O (some centres not stated) [fulvestrant] | 1.97
O=C(c1ccc(F)c(F)c1Nc1ccc(I)cc1F)N1CC(O)([C@@H]2CCCCN2)C1 [cobimetinib] | 1.82
O=C(/C=C/c1cccnc1)NCCCCC1CCN(C(=O)c2ccccc2)CC1 [FK866] | 0.508
CS(=O)(=O)c1ccc(C(=O)Nc2ccc(Cl)c(-c3ccccn3)c2)c(Cl)c1 [vismodegib] | 1.95
C=CCn1c(=O)c2cnc(Nc3ccc(N4CCN(C)CC4)cc3)nc2n1-c1cccc(C(C)(C)O)n1 [adavosertib] | 1.55

Same assay, conditions: 0.005 µM; days in culture: 190

Compound | CTG-3D luminescence at 96 h
COc1cc2c(Oc3ccc4[nH]c(C)cc4c3F)ncnc2cc1OCCCN1CCCC1 [cediranib] | 1.45
CC(C)n1nc(-c2ccc3oc(N)nc3c2)c2c(N)ncnc21 [sapanisertib] | 1.49
Cc1cc(Nc2ncnc3ccc(NC4=NC(C)(C)CO4)cc23)ccc1Oc1ccn2ncnc2c1 [tucatinib] | 1.48
C[C@H](NC(=O)CCC(F)(F)F)C(=O)N[C@@H]1C(=O)N(CCO)c2ncccc2-c2ccccc21 [crenigacestat] | 1.29
C[C@]12CC[C@@H]3c4ccc(O)cc4C[C@@H](CCCCCCCCC[S+]([O-])CCCC(F)(F)C(F)(F)F)[C@H]3[C@@H]1CC[C@@H]2O (some centres not stated) [fulvestrant] | 1.85
O=C(c1ccc(F)c(F)c1Nc1ccc(I)cc1F)N1CC(O)([C@@H]2CCCCN2)C1 [cobimetinib] | 1.45
O=C(/C=C/c1cccnc1)NCCCCC1CCN(C(=O)c2ccccc2)CC1 [FK866] | 0.967
CS(=O)(=O)c1ccc(C(=O)Nc2ccc(Cl)c(-c3ccccn3)c2)c(Cl)c1 [vismodegib] | 1.74
C=CCn1c(=O)c2cnc(Nc3ccc(N4CCN(C)CC4)cc3)nc2n1-c1cccc(C(C)(C)O)n1 [adavosertib] | 1.36

Same assay, conditions: 0.005 µM; days in culture: 199

Compound | CTG-3D luminescence at 96 h
COc1cc2c(Oc3ccc4[nH]c(C)cc4c3F)ncnc2cc1OCCCN1CCCC1 [cediranib] | 1.17
CC(C)n1nc(-c2ccc3oc(N)nc3c2)c2c(N)ncnc21 [sapanisertib] | 1.33
Cc1cc(Nc2ncnc3ccc(NC4=NC(C)(C)CO4)cc23)ccc1Oc1ccn2ncnc2c1 [tucatinib] | 1.65
C[C@H](NC(=O)CCC(F)(F)F)C(=O)N[C@@H]1C(=O)N(CCO)c2ncccc2-c2ccccc21 [crenigacestat] | 1.49
C[C@]12CC[C@@H]3c4ccc(O)cc4C[C@@H](CCCCCCCCC[S+]([O-])CCCC(F)(F)C(F)(F)F)[C@H]3[C@@H]1CC[C@@H]2O (some centres not stated) [fulvestrant] | 1.9
O=C(c1ccc(F)c(F)c1Nc1ccc(I)cc1F)N1CC(O)([C@@H]2CCCCN2)C1 [cobimetinib] | 1.59
O=C(/C=C/c1cccnc1)NCCCCC1CCN(C(=O)c2ccccc2)CC1 [FK866] | 0.503
CS(=O)(=O)c1ccc(C(=O)Nc2ccc(Cl)c(-c3ccccn3)c2)c(Cl)c1 [vismodegib] | 2.17
C=CCn1c(=O)c2cnc(Nc3ccc(N4CCN(C)CC4)cc3)nc2n1-c1cccc(C(C)(C)O)n1 [adavosertib] | 1.53

Same assay, conditions: 0.1 µM; days in culture: 153

Compound | CTG-3D luminescence at 96 h
COc1cc2c(Oc3ccc4[nH]c(C)cc4c3F)ncnc2cc1OCCCN1CCCC1 [cediranib] | 2.54
CC(C)n1nc(-c2ccc3oc(N)nc3c2)c2c(N)ncnc21 [sapanisertib] | 0.842
Cc1cc(Nc2ncnc3ccc(NC4=NC(C)(C)CO4)cc23)ccc1Oc1ccn2ncnc2c1 [tucatinib] | 1.49
C[C@H](NC(=O)CCC(F)(F)F)C(=O)N[C@@H]1C(=O)N(CCO)c2ncccc2-c2ccccc21 [crenigacestat] | 1.66
C[C@]12CC[C@@H]3c4ccc(O)cc4C[C@@H](CCCCCCCCC[S+]([O-])CCCC(F)(F)C(F)(F)F)[C@H]3[C@@H]1CC[C@@H]2O (some centres not stated) [fulvestrant] | 2.05
O=C(c1ccc(F)c(F)c1Nc1ccc(I)cc1F)N1CC(O)([C@@H]2CCCCN2)C1 [cobimetinib] | 1.1
O=C(/C=C/c1cccnc1)NCCCCC1CCN(C(=O)c2ccccc2)CC1 [FK866] | 0.026
CS(=O)(=O)c1ccc(C(=O)Nc2ccc(Cl)c(-c3ccccn3)c2)c(Cl)c1 [vismodegib] | 1.54
C=CCn1c(=O)c2cnc(Nc3ccc(N4CCN(C)CC4)cc3)nc2n1-c1cccc(C(C)(C)O)n1 [adavosertib] | 2.27

Same assay, conditions: 0.1 µM; days in culture: 172

Compound | CTG-3D luminescence at 96 h
COc1cc2c(Oc3ccc4[nH]c(C)cc4c3F)ncnc2cc1OCCCN1CCCC1 [cediranib] | 1.62
CC(C)n1nc(-c2ccc3oc(N)nc3c2)c2c(N)ncnc21 [sapanisertib] | 0.699
Cc1cc(Nc2ncnc3ccc(NC4=NC(C)(C)CO4)cc23)ccc1Oc1ccn2ncnc2c1 [tucatinib] | 1.43
C[C@H](NC(=O)CCC(F)(F)F)C(=O)N[C@@H]1C(=O)N(CCO)c2ncccc2-c2ccccc21 [crenigacestat] | 1.66
C[C@]12CC[C@@H]3c4ccc(O)cc4C[C@@H](CCCCCCCCC[S+]([O-])CCCC(F)(F)C(F)(F)F)[C@H]3[C@@H]1CC[C@@H]2O (some centres not stated) [fulvestrant] | 1.54
O=C(c1ccc(F)c(F)c1Nc1ccc(I)cc1F)N1CC(O)([C@@H]2CCCCN2)C1 [cobimetinib] | 0.984
O=C(/C=C/c1cccnc1)NCCCCC1CCN(C(=O)c2ccccc2)CC1 [FK866] | 0.0341
CS(=O)(=O)c1ccc(C(=O)Nc2ccc(Cl)c(-c3ccccn3)c2)c(Cl)c1 [vismodegib] | 1.87
C=CCn1c(=O)c2cnc(Nc3ccc(N4CCN(C)CC4)cc3)nc2n1-c1cccc(C(C)(C)O)n1 [adavosertib] | 1.14

Same assay, conditions: 0.1 µM; days in culture: 190

Compound | CTG-3D luminescence at 96 h
COc1cc2c(Oc3ccc4[nH]c(C)cc4c3F)ncnc2cc1OCCCN1CCCC1 [cediranib] | 1.43
CC(C)n1nc(-c2ccc3oc(N)nc3c2)c2c(N)ncnc21 [sapanisertib] | 0.534
Cc1cc(Nc2ncnc3ccc(NC4=NC(C)(C)CO4)cc23)ccc1Oc1ccn2ncnc2c1 [tucatinib] | 1.54
C[C@H](NC(=O)CCC(F)(F)F)C(=O)N[C@@H]1C(=O)N(CCO)c2ncccc2-c2ccccc21 [crenigacestat] | 0.549
C[C@]12CC[C@@H]3c4ccc(O)cc4C[C@@H](CCCCCCCCC[S+]([O-])CCCC(F)(F)C(F)(F)F)[C@H]3[C@@H]1CC[C@@H]2O (some centres not stated) [fulvestrant] | 1.28
O=C(c1ccc(F)c(F)c1Nc1ccc(I)cc1F)N1CC(O)([C@@H]2CCCCN2)C1 [cobimetinib] | 1
O=C(/C=C/c1cccnc1)NCCCCC1CCN(C(=O)c2ccccc2)CC1 [FK866] | 0.0245
CS(=O)(=O)c1ccc(C(=O)Nc2ccc(Cl)c(-c3ccccn3)c2)c(Cl)c1 [vismodegib] | 1.58
C=CCn1c(=O)c2cnc(Nc3ccc(N4CCN(C)CC4)cc3)nc2n1-c1cccc(C(C)(C)O)n1 [adavosertib] | 0.602

Same assay, conditions: 0.1 µM; days in culture: 199

Compound | CTG-3D luminescence at 96 h
COc1cc2c(Oc3ccc4[nH]c(C)cc4c3F)ncnc2cc1OCCCN1CCCC1 [cediranib] | 1.65
CC(C)n1nc(-c2ccc3oc(N)nc3c2)c2c(N)ncnc21 [sapanisertib] | 0.585
Cc1cc(Nc2ncnc3ccc(NC4=NC(C)(C)CO4)cc23)ccc1Oc1ccn2ncnc2c1 [tucatinib] | 1.66
C[C@H](NC(=O)CCC(F)(F)F)C(=O)N[C@@H]1C(=O)N(CCO)c2ncccc2-c2ccccc21 [crenigacestat] | 1.38
C[C@]12CC[C@@H]3c4ccc(O)cc4C[C@@H](CCCCCCCCC[S+]([O-])CCCC(F)(F)C(F)(F)F)[C@H]3[C@@H]1CC[C@@H]2O (some centres not stated) [fulvestrant] | 1.67
O=C(c1ccc(F)c(F)c1Nc1ccc(I)cc1F)N1CC(O)([C@@H]2CCCCN2)C1 [cobimetinib] | 1.4
O=C(/C=C/c1cccnc1)NCCCCC1CCN(C(=O)c2ccccc2)CC1 [FK866] | 0.0273
CS(=O)(=O)c1ccc(C(=O)Nc2ccc(Cl)c(-c3ccccn3)c2)c(Cl)c1 [vismodegib] | 2.07
C=CCn1c(=O)c2cnc(Nc3ccc(N4CCN(C)CC4)cc3)nc2n1-c1cccc(C(C)(C)O)n1 [adavosertib] | 1.52
